According to patent publication US8487093B2, “β-lactamase inhibitors” (Merck Sharp & Dohme Corp., priority 2008, dated 2013):
Read-outs that look alike come from different tables or passages of the source.

Tests used:
AmpC (P. aeruginosa) = AmpC (P. aeruginosa) (Pseudomonas aeruginosa (strain ATCC 15692 / DSM 22644 / CIP 104116 / JCM 14847 / LMG 12228 / 1C / PRS 101 / PAO1), UniProt P24735); experiment: biochemical
Experimental: The Class C enzyme activities were measured in the presence of the test inhibitor in spectrophotometric assay against the commercially available substrate, nitrocefin. The enzyme AmpC (P. aeruginosa.), and the substrate, were dissolved in 100 mM KH2PO4 buffer (pH 7). The buffer also contains 0.005% BSA. The test inhibitor was dissolved in DMSO and diluted 1:20 in the assay, resulting in a final concentration range of 50 μM to 0.0002 μM. In a 96-well microplate, the test inhibitor was incubated with the beta-lactamase enzyme for 40 minutes at ambient temperature, the substrate solution was added, and the incubation continued for another 40 minutes. […] The IC50 value was determined from semi logarithmic plots of enzyme inhibition versus inhibitor concentration, with a curve generated using a 4-parameter fit.

KPC-2 (K. pneumoniae) = KPC-2 (K. pneumoniae) (Klebsiella pneumoniae, UniProt Q9F663); experiment: biochemical
KPC-2 (K. pneumoniae), sequence (Q9F663 25-293 limits assumed): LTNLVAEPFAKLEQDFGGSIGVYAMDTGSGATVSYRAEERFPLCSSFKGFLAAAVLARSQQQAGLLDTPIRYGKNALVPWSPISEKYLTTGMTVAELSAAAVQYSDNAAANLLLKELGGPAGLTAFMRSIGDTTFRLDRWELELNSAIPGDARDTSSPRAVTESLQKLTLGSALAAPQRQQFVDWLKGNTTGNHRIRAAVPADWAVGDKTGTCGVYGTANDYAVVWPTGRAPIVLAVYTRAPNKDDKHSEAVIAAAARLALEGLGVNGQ

[1] = Table 3, read-out: P.a. AmpC IC50
[2] = Table 3, read-out: K.p. KPC-2 IC50

AmpC (P. aeruginosa), sequence (P24735 27-397): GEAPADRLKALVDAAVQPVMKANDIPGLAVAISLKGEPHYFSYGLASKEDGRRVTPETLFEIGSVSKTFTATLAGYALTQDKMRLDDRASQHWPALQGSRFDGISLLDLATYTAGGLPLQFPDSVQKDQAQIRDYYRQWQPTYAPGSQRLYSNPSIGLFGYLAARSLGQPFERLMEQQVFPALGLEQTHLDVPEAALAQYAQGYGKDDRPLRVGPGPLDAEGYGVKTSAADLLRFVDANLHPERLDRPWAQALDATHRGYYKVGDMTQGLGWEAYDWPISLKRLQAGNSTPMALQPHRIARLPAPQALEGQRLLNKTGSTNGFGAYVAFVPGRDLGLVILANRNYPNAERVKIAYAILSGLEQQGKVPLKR

| Compound | IC50 (AmpC (P. aeruginosa); [1]) [nM] | IC50 (KPC-2 (K. pneumoniae); [2]) [nM] | IC50 (AmpC (P. aeruginosa)) [nM] | IC50 (KPC-2 (K. pneumoniae); K.p. KPC-2 IC50, Table 3) [nM] |
| --- | --- | --- | --- | --- |
| O=C(N[C@H]1CCCNC[C@H]1F)[C@@H]1CC[C@@H]2CN1C(=O)N2OS(=O)(=O)O [Example 36] | 18 | 130 | – | – |
| O=C(NCCC1CCNCC1)[C@@H]1CC[C@@H]2CN1C(=O)N2OS(=O)(=O)O [Example 44] | 11 | 45 | – | – |
| O=C(N[C@H]1CNC[C@H]1F)[C@@H]1CC[C@@H]2CN1C(=O)N2OS(=O)(=O)O [Example 32] | – | – | 19 | 710 |
| O=C(Nc1cccnc1)[C@@H]1CC[C@@H]2CN1C(=O)N2OS(=O)(=O)O [Example 71] | – | 42 | 37 | – |
| NCC1CCCCN1C(=O)[C@@H]1CC[C@@H]2CN1C(=O)N2OS(=O)(=O)O (stereo partly drawn) [Example 49] | 7500 | 780 | – | – |
| O=C(NC1CCCNC1)[C@@H]1CC[C@@H]2CN1C(=O)N2OS(=O)(=O)O (stereo partly drawn) [Example 19a] | 64 | 480 | – | – |
| O=C(NCCN1CCNCC1)[C@@H]1CC[C@@H]2CN1C(=O)N2OS(=O)(=O)O [Example 46] | 42 | 96 | – | – |
| O=C(N[C@H]1CCNC[C@@H]1F)[C@@H]1CC[C@@H]2CN1C(=O)N2OS(=O)(=O)O [Example 24] | – | 90 | 110 | – |
| CN(C)Cc1ccc(NC(=O)[C@@H]2CC[C@@H]3CN2C(=O)N3OS(=O)(=O)O)cc1 [Example 62] | 18 | 54 | – | – |
| CC(=O)Oc1ccc(C(=O)NCCOC(=O)[C@@H]2CC[C@@H]3CN2C(=O)N3OS(=O)(=O)O)cc1OC(C)=O [Example 116] | 440 | 70 | – | – |
| O=C(NCC1(F)CNC1)[C@@H]1CC[C@@H]2CN1C(=O)N2OS(=O)(=O)O [Example 37] | 40 | 120 | – | – |
| O=C(OCCC1CCNCC1)[C@@H]1CC[C@@H]2CN1C(=O)N2OS(=O)(=O)O [Example 112] | – | 13 | 165 | – |
| CN(C)C1CCN(C(=O)[C@@H]2CC[C@@H]3CN2C(=O)N3OS(=O)(=O)O)C1 (stereo partly drawn) [Example 56] | 270 | 1600 | – | – |
| O=C(O[C@@H]1CNC[C@H]1F)[C@@H]1CC[C@@H]2CN1C(=O)N2OS(=O)(=O)O [Example 105] | – | 13 | 200 | – |
| O=C(NC1CCS(=O)(=O)CC1)[C@@H]1CC[C@@H]2CN1C(=O)N2OS(=O)(=O)O [Example 27] | 9.5 | 150 | – | – |
| CO[C@H]1CNCC[C@H]1NC(=O)[C@@H]1CC[C@@H]2CN1C(=O)N2OS(=O)(=O)O [Example 26] | – | – | 120 | 290 |
| O=C(NCC1CCCCN1)[C@@H]1CC[C@@H]2CN1C(=O)N2OS(=O)(=O)O (stereo partly drawn) [Example 39] | 530 | 190 | – | – |
| Cn1ccnc1NC(=O)[C@@H]1CC[C@@H]2CN1C(=O)N2OS(=O)(=O)O [Example 86] | 240 | 135 | – | – |
| O=C(OCC1CCNCC1)[C@@H]1CC[C@@H]2CN1C(=O)N2OS(=O)(=O)O [Example 18, Piperidin-4-ylmethyl(2S,5R)-7-oxo-6-(sulfooxy)-1,6-diazabicyclo[3.2.1]octane-2-carboxylate] | 180 | 10 | – | – |

| Compound | IC50 (AmpC (P. aeruginosa); [1]) [nM] | IC50 (KPC-2 (K. pneumoniae); [2]) [nM] | IC50 (AmpC (P. aeruginosa)) [nM] | IC50 (KPC-2 (K. pneumoniae); K.p. KPC-2 IC50, Table 3) [nM] |
| --- | --- | --- | --- | --- |
| NC(=O)c1cccc(NC(=O)[C@@H]2CC[C@@H]3CN2C(=O)N3OS(=O)(=O)O)c1 [Example 70] | – | 26 | 3 | – |
| O=C(N[C@@H]1CCCNCC1)[C@@H]1CC[C@@H]2CN1C(=O)N2OS(=O)(=O)O [Example 22] | – | 225 | 520 | – |
| NCc1ccccc1NC(=O)[C@@H]1CC[C@@H]2CN1C(=O)N2OS(=O)(=O)O [Example 59] | – | 109 | 292 | – |
| O=C(O[C@H]1CCCNCC1)[C@@H]1CC[C@@H]2CN1C(=O)N2OS(=O)(=O)O [Example 91] | 83 | 6 | – | – |
| O=C(O)c1ccc(NC(=O)[C@@H]2CC[C@@H]3CN2C(=O)N3OS(=O)(=O)O)cc1 [Example 67] | 11 | 10 | – | – |
| O=C(N[C@@H]1CNC[C@@H]1O)[C@@H]1CC[C@@H]2CN1C(=O)N2OS(=O)(=O)O [Example 30] | 2250 | 520 | – | – |
| O=C(Nc1ccc(N2CCNCC2)cn1)[C@@H]1CC[C@@H]2CN1C(=O)N2OS(=O)(=O)O [Example 80] | 2 | 15 | – | – |
| CN(C)c1ccnc(NC(=O)[C@@H]2CC[C@@H]3CN2C(=O)N3OS(=O)(=O)O)c1 [Example 75] | 3 | 410 | – | – |
| NCc1ccnc(NC(=O)[C@@H]2CC[C@@H]3CN2C(=O)N3OS(=O)(=O)O)c1 [Example 76] | 2 | 1300 | – | – |
| O=C(Nc1ccccn1)[C@@H]1CC[C@@H]2CN1C(=O)N2OS(=O)(=O)O [Example 72] | 1.2 | 36 | – | – |
| O=C(O[C@H]1CNOC1)[C@@H]1CC[C@@H]2CN1C(=O)N2OS(=O)(=O)O [Example 107] | 39 | 11 | – | – |
| O=C(Nc1ccc(C2CCNCC2)cn1)[C@@H]1CC[C@@H]2CN1C(=O)N2OS(=O)(=O)O [Example 17, (2S,5R)-7-Oxo-N-(5-piperidin-4-ylpyridin-2-yl)-6-(sulfooxy)-1,6-diazabicyclo[3.2.1]octane-2-carboxamide] | 6 | – | – | – |
| O=C(Nc1cc(N2CCCC2)nc(N2CCCC2)c1)[C@@H]1CC[C@@H]2CN1C(=O)N2OS(=O)(=O)O [Example 73] | 515 | 130 | – | – |
| O=C(N[C@@H]1CCNC1)[C@@H]1CC[C@@H]2CN1C(=O)N2OS(=O)(=O)O [Example 21] | 29100 | – | – | 4300 |
| O=C(NC1CCNC1)[C@@H]1CC[C@@H]2CN1C(=O)N2OS(=O)(=O)O (stereo in doubt) [Example 14, (2S,5R)-7-oxo-N-[(3R)-pyrrolidin-3-yl]-6-(sulfooxy)-1,6-diazabicyclo[3.2.1]octane-2-carboxamide] | 110 | – | – | 355 |
| O=C(O[C@@H]1CNC[C@@H]1F)[C@@H]1CC[C@@H]2CN1C(=O)N2OS(=O)(=O)O [Example 103] | – | 3 | 39 | – |
| O=C(Nc1nc2c(s1)CNCC2)[C@@H]1CC[C@@H]2CN1C(=O)N2OS(=O)(=O)O [Example 89] | 10 | 39 | – | – |
| O=C(O[C@@H]1CNOC1)[C@@H]1CC[C@@H]2CN1C(=O)N2OS(=O)(=O)O [Example 108] | 62 | 11 | – | – |
| O=C(N[C@@H]1CNC[C@@H]1F)[C@@H]1CC[C@@H]2CN1C(=O)N2OS(=O)(=O)O [Example 31] | – | – | 150 | 190 |

| Compound | IC50 (AmpC (P. aeruginosa); [1]) [nM] | IC50 (KPC-2 (K. pneumoniae); [2]) [nM] | IC50 (AmpC (P. aeruginosa)) [nM] | IC50 (KPC-2 (K. pneumoniae); K.p. KPC-2 IC50, Table 3) [nM] |
| --- | --- | --- | --- | --- |
| CN(C(=O)[C@@H]1CC[C@@H]2CN1C(=O)N2OS(=O)(=O)O)C1CCNCC1 [Example 48] | 290 | 2500 | – | – |
| O=C([C@@H]1CC[C@@H]2CN1C(=O)N2OS(=O)(=O)O)N1CCNCC1 [Example 51] | 2200 | 520 | – | – |
| O=C(Nc1ccc2c(c1)CNC2)[C@@H]1CC[C@@H]2CN1C(=O)N2OS(=O)(=O)O [Example 65] | 16 | 60 | – | – |
| N[C@H]1CCN(C(=O)[C@@H]2CC[C@@H]3CN2C(=O)N3OS(=O)(=O)O)C1 [Example 55] | 1400 | 1500 | – | – |
| O=C(Nc1ccncn1)[C@@H]1CC[C@@H]2CN1C(=O)N2OS(=O)(=O)O [Example 84] | 0.8 | 55 | – | – |
| O=C(O[C@H]1CCNC1)[C@@H]1CC[C@@H]2CN1C(=O)N2OS(=O)(=O)O [Example 95] | – | 21 | 210 | – |
| O=C(O[C@H]1CNCC[C@H]1F)[C@@H]1CC[C@@H]2CN1C(=O)N2OS(=O)(=O)O [Example 102] | – | 4 | 76 | – |
| O=C(NC[C@@H]1CNCCCO1)[C@@H]1CC[C@@H]2CN1C(=O)N2OS(=O)(=O)O [Example 42] | – | – | 100 | 110 |
| O=C(OC1CNNC1)[C@@H]1CC[C@@H]2CN1C(=O)N2OS(=O)(=O)O [Example 109] | 700 | 62 | – | – |
| O=C(NCC1CCNCC1)[C@@H]1CC[C@@H]2CN1C(=O)N2OS(=O)(=O)O [Example 40] | 30 | – | – | 77 |
| O=C(Nc1nccs1)[C@@H]1CC[C@@H]2CN1C(=O)N2OS(=O)(=O)O [Example 88] | 1.8 | 36 | – | – |
| O=C(OC1CNC1)[C@@H]1CC[C@@H]2CN1C(=O)N2OS(=O)(=O)O [Example 96] | 600 | 18 | – | – |
| O=C(Nc1cccc(C2CCNCC2)n1)[C@@H]1CC[C@@H]2CN1C(=O)N2OS(=O)(=O)O [Example 79] | 270 | 24 | – | – |
| O=C([C@@H]1CC[C@@H]2CN1C(=O)N2OS(=O)(=O)O)N1CC2CNCC2C1 (stereo partly drawn) [Example 53] | – | 33 | 1000 | – |
| O=C(NC1C2CNCC21)[C@@H]1CC[C@@H]2CN1C(=O)N2OS(=O)(=O)O (stereo partly drawn) [Example 47] | 720 | 10000 | – | – |
| O=C(N[C@@H]1CCN(C2CCNCC2)C1=O)[C@@H]1CC[C@@H]2CN1C(=O)N2OS(=O)(=O)O [Example 34] | – | 280 | 45 | – |
| NCc1ccc(NC(=O)[C@@H]2CC[C@@H]3CN2C(=O)N3OS(=O)(=O)O)nc1 [Example 77] | 3 | 42 | – | – |
| NCc1ccc(OC(=O)[C@@H]2CC[C@@H]3CN2C(=O)N3OS(=O)(=O)O)cc1 [Example 115] | 24 | 2 | – | – |
